From article PMC12537922 (Nature Communications, 2025)

Experiments:
[1] = biological target: T1, PiAA7A (Phytophthora infestans, UniProt D0MXI7); conditions: co-substrate O2; 25 mM MES pH 6, 20 °C, 1 nM enzyme; sigmoidal (allosteric) model
T1 construct: gene PITG_02928

[2] = biological target: T2, PiAA7D (Phytophthora infestans, UniProt D0N574); conditions: co-substrate O2; 25 mM MES pH 6, 20 °C, 1 nM enzyme; sigmoidal (allosteric) model
T2 construct: gene PITG_06591
T2 sequence (D0N574 27-508 limits assumed): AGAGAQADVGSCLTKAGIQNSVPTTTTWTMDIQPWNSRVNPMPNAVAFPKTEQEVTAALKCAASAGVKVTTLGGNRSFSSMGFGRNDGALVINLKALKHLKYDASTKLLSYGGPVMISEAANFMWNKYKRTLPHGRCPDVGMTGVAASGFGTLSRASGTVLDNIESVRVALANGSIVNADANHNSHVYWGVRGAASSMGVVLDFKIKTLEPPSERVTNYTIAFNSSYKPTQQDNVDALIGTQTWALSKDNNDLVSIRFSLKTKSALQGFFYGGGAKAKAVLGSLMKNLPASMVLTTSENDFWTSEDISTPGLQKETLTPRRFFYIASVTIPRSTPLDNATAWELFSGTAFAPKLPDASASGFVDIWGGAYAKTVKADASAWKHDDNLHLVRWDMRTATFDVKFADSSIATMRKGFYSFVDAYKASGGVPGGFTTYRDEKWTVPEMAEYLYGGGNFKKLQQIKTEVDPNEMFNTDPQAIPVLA

T1 sequence (D0MXI7 27-509 limits assumed): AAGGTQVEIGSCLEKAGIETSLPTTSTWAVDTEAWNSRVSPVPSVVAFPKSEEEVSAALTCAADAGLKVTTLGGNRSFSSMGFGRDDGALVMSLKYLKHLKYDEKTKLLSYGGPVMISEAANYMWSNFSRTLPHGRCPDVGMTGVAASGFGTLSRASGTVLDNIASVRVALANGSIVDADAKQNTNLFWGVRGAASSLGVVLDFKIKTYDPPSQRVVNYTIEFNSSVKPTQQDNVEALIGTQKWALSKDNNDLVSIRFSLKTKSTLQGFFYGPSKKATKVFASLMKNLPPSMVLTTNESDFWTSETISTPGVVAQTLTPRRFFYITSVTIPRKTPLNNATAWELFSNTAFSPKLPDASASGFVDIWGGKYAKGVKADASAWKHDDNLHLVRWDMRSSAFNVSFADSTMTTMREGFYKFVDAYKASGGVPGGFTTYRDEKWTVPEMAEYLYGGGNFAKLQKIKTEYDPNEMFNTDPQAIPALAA

Compound: O=C(O)[C@H]1O[C@H](O[C@@H]2[C@H](O)[C@@H](O)[C@@H](O[C@@H]3[C@H](O)[C@@H](O)C(O)O[C@@H]3C(=O)O)O[C@@H]2C(=O)O)[C@H](O)[C@@H](O)[C@H]1O (some centres unmarked) [OG3]
- KM [1]: a sigmoidal (allosteric) model was found to be more appropriate for PiAA7A with OG3

Compound: O=C(O)[C@H]1O[C@H](O[C@@H]2[C@H](O)[C@@H](O)[C@@H](O[C@@H]3[C@H](O)[C@@H](O)[C@@H](O[C@@H]4[C@H](O)[C@@H](O)C(O)O[C@@H]4C(=O)O)O[C@@H]3C(=O)O)O[C@@H]2C(=O)O)[C@H](O)[C@@H](O)[C@H]1O (some centres unmarked) [OG4]
- KM [2]: PiAA7D with OG4
